# Assay results taken from patent publication US10076511B2, “Bisamide derivative of dicarboxylic acid as an agent for stimulating tissue regeneration and recovery of diminished tissue function” (TREAMID GmbH, priority 2015, dated 2018).
# Key:
# male C57BL/6 mice [1] = test: Metabolic syndrome model in mice (streptozotocin + high-fat diet): pancreas, glucose, testosterone; assay type: in vivo, mouse
# Experimental: Metabolic disorders were simulated as follows: on Day 2 after birth, male C57Bl/6 mice were injected with streptozotocin at a dose of 200 mg/kg once, subcutaneously in the withers area, and the volume of the injected solution was 30 μl. From week 4 after birth, the animals were transferred to a diet high in fat. For this purpose, the used feed was enriched with heavy saturated fats (30% fat) (Siff EF R/M with 30% Fat Cat No. E15116-34, Germany). The duration of feeding with a high-fat feed was 42 days (from Day 28 to Day 70 of the experiment). […] The control animals received the equivalent volume of a solvent (2% starch mucus), instead of the test compound.
# On Days 28, 35, 42, 49, 56, 63, and 70 of the study, blood glucose was determined. The blood glucose level was determined with a glucometer meter (Accu-Chek Performs Nanu (“Roche Diagnostes GmbH”, Germany). Blood glucose was measured in animals after 16-hour feed deprivation; all subsequent measurements of the glucose level were also performed after 16-hour feed deprivation.
# On Day 70 day, animals were euthanized in a CO2 chamber. Then, the serum free testosterone level was studied, and the morphological examination of the pancreas was performed.
# The level of free testosterone in the serum was evaluated by enzyme immunoassay according to the protocol of manufacturer's test system.
# For morphological study, a part of the pancreas adjacent to the spleen was fixed in 10% formalin and poured into paraffin according to the standard method.
# Deparaffined sections of the gland were stained with hematoxylin and eosin. On the sections, the area of 10 serial islets of Langerhans was determined by graphic computer analysis, and the total number of cells and the number of pyknotized cells were counted therein. Then, the number of cells per unit islet area and the percentage of the pyknotized cells were calculated. Inflammatory cells (neutrophils, lymphocytes, macrophages) in the pancreatic tissue and their composition were studied by staining of the histological sections with hematoxylin-eosin.
# male C57BL/6 mice [2] = test: Bleomycin-induced pulmonary fibrosis model; assay type: in vivo, mouse; conditions: Day 21; 10 mg/kg
# Experimental: Toxic damage of the lung alveolar epithelium causing pulmonary fibrosis was simulated by intra-tracheal administration of the cytostatic bleomycin once in a dose of 80 μg/mouse in 30 μl of physiological saline. Anesthesia during the operation was achieved by using inhalation ether. The surgical field was disinfected with a 70% ethanol solution and hair on this field was removed. The skin, subcutaneous tissue and own fascia of the neck were dissected along the middle line of the neck. The muscles were moved apart on the ventral side of the trachea by the method of blunt separation of tissues. Injection of bleomycin was made on inhalation along the airflow by a Hamilton syringe. After suturing the wound, the surgical field was treated with an antiseptic. The administration of bleomycin was taken as Day 0 of the experiment.
# The effectiveness of Treamid and the reproduction of pulmonary fibrosis were estimated by the number and intensity of the synthesis of connective tissue in the lungs, as well as by the histoarchitectonics of the lungs.
# Thus, the staining of histological preparations of the lungs of C57BL/6 mice with picrofuxin according to Van Gieson and subsequent visualization of the connective tissue made it possible to register a significant proliferation of the connective tissue, mainly around the vessels and bronchioles (FIG. 5, Table 36). In addition, lung homogenates of the animals of the intact control and pathological control were investigated by enzyme immunoassay.
# male rats = assay type: in vivo, rat; conditions: Day 45 and Day 65
# Experimental: The latter was simulated by a single injection of cytostatic drug Paclitaxel (Mitotax, Dr. Reddy's, India) to male rats (3 months of age). The choice of the drug was due to the fact that it is one of the medications that damage the precursors of spermatogenesis—stem cells.
# Paclitaxel was administered to the animals of the control and test groups once intravenously at the maximum tolerated dose of 7.6 mg/kg. Treamid was administered to the animals of the experimental groups intragastrically at a dose of 5 mg/kg in the form of a suspension in 2% starch mucus for 15 days a month after the administration of Paclitaxel. The control animals received an equivalent volume of the solvent (2% starch mucus), instead of the test compound. […]
# On Day 1 (in 24 hours), as well as on Day 45 and Day 65 after the administration of Paclitaxel, the animals were euthanized, and the preparations of their testes were made. Further, the content of progenitor cells of spermatogenesis in the testes was determined by an in vitro cloning method. […] Then, the nonadherent fraction of cells was collected, and the number of cells (cells/ml) was counted in the Goriaev chamber. […] After the incubation, the number of colony-forming units, spermatogenic (CFU-Sp)—clusters of more than 30 cells of round shape and of various diameters—was counted. […]
# [3] = Day 70, Treamid (1 mg/kg), n = 8
structure (smiles),measurement,setting,value
O=C(CCCC(=O)NCCc1ncc[nH]1)NCCc1ncc[nH]1 [Treamid],Serum glucose concentration,"male C57BL/6 mice [1]; Day 28 (before Treamid, given Day 49-70)",5.36 ± 1.28 mmol/L
same,Serum glucose concentration,"male C57BL/6 mice [1]; Day 35 (before Treamid, given Day 49-70)",4.21 ± 1.81 mmol/L
same,Serum glucose concentration,"male C57BL/6 mice [1]; Day 42 (before Treamid, given Day 49-70)",12.75 ± 2.6 mmol/L
same,Serum glucose concentration,"male C57BL/6 mice [1]; Day 49, Treamid 10 mg/kg intragastrically Day 49-70",13.59 ± 2.41 mmol/L
same,Serum glucose concentration (mmol/L),"male C57BL/6 mice [1]; Day 56, Treamid 10 mg/kg intragastrically Day 49-70",12.91 ± 4.48*• mmol/L
same,Serum glucose concentration (mmol/L),"male C57BL/6 mice [1]; Day 63, Treamid 10 mg/kg intragastrically Day 49-70",14.47 ± 3.21*• mmol/L
same,"Free testosterone (pg/ml), serum","male C57BL/6 mice [1]; Day 70, Treamid 10 mg/kg",3.70 ± 0.46 pg/mL
same,Serum glucose concentration,"male C57BL/6 mice [1]; Day 70, Treamid 10 mg/kg intragastrically Day 49-70",21.82 ± 5.83 mmol/L
same,% of pyknotized cells in the islet of Langerhans,male C57BL/6 mice [1]; [3],0.99 ± 0.06• %
same,Area of an islet (pixel),male C57BL/6 mice [1]; [3],743399 ± 21134*• pixel
same,The number of islets in 30 vision fields,male C57BL/6 mice [1]; [3],7.4 ± 0.37•
same,Hydroxyproline (μg/ml) in the lungs,male C57BL/6 mice [2],27.97 ± 2.2 µg/mL
same,The content of connective tissue (%) in the lungs,male C57BL/6 mice [2],1.17 ± 0.20• %
same,Total collagen (mg/ml) in the lungs,male C57BL/6 mice [2],23.4 ± 1.7 mg/mL
same,Type I collagen (ng/ml) in the lungs,male C57BL/6 mice [2],201.6 ± 18 ng/mL
same,increase in the number of colony-forming cells compared with the cytostatic control,male rats,44-48%
